Reference: US20260250257A1, “ANTIBACTERIAL AND SYNERGISTIC ACTIVE COMPOUND AND USE THEREOF” (EAST CHINA UNIVERSITY OF SCIENCE AND TECHNOLOGY, priority 2023, published 2026)
In brackets after ≈: the same amount, converted by molar mass.

Legend:
Assay type in all cases: cell-based
[1] = test system: ATCC13883 strain (Klebsiella pneumoniae); assay: Checkerboard antibacterial synergistic activity test with polymyxin E (FIC); design: key: FIC≤0.5 synergy; 0.5–1 additive; 1–2 indifferent; ≥2 antagonism; details: combined with polymyxin E
Summary of the method: (§1)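 Polymyxin E was diluted in MH broth to 16–0.015 μg/ml and the test compound to 256–4 μg/ml (two-fold series, pre-mixing concentrations), combined checkerboard-style in 96-well plates with bacterial suspension and blank controls, and incubated at 37° C. for 16 h. FIC ≤0.5 was scored synergistic, >0.5 to <1 additive, 1–2 indifferent, ≥2 antagonistic.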

[2] = test system: ATCC19606 strain (Acinetobacter baumannii); assay: as above; design: key: FIC≤0.5 synergy; 0.5–1 additive; 1–2 indifferent; ≥2 antagonism; details: combined with polymyxin E
Summary of the method: as §1

[3] = test system: ATCC25922 strain (Escherichia coli); assay: as above; design: key: FIC≤0.5 synergy; 0.5–1 additive; 1–2 indifferent; ≥2 antagonism; details: combined with polymyxin E
Summary of the method: as §1

[4] = test system: ATCC9027 strain (Pseudomonas aeruginosa); assay: as above; design: key: FIC≤0.5 synergy; 0.5–1 additive; 1–2 indifferent; ≥2 antagonism; details: combined with polymyxin E
Summary of the method: as §1

[5] = test system: ATCC13883 strain (Klebsiella pneumoniae); assay: Broth microdilution, antibacterial activity of the compound used alone; details: for MIC: read-out: Antibacterial activity of the compound of Formula I, ATCC13883
Description: (§2) The broth microdilution method was used to test the antibacterial effects of the compounds of the present invention against various Gram-negative bacterial strains when used alone.

[6] = test system: ATCC19606 strain (Acinetobacter baumannii); assay: as above; details: for MIC: read-out: Antibacterial activity of the compound of Formula I, ATCC19606
Description: as §2

[7] = test system: ATCC25922 strain (Escherichia coli); assay: as above; details: for MIC: read-out: Antibacterial activity of the compound of Formula I, ATCC25922
Description: as §2

[8] = test system: ATCC9027 strain (Pseudomonas aeruginosa); assay: as above; details: for MIC: read-out: Antibacterial activity of the compound of Formula I, ATCC9027
Description: as §2

| MIC [5] [µg/mL] | MIC [6] [µg/mL] | MIC [7] [µg/mL] | MIC [8] [µg/mL] | SMILES | Synergistic activity (FIC value) ATCC13883 [1] | Synergistic activity (FIC value) ATCC19606 [2] | Synergistic activity (FIC value) ATCC25922 [3] | Synergistic activity (FIC value) ATCC9027 [4] | Antibacterial activity of the compound of Formula I, ATCC13883 [5] [µg/mL] | Antibacterial activity of the compound of Formula I, ATCC19606 [6] [µg/mL] | Antibacterial activity of the compound of Formula I, ATCC25922 [7] [µg/mL] | Antibacterial activity of the compound of Formula I, ATCC9027 [8] [µg/mL] |
| --- | --- | --- | --- | --- | --- | --- | --- | --- | --- | --- | --- | --- |
|  |  |  |  | Fc1cc(Oc2ccc(Cl)cc2Cl)cc(-c2csc(N=C3NCCCN3)n2)c1 [Compound I-161] | 0.09 | 0.31 | 0.14 | 0.06 | 256 | 256 | 256 | 256 |
|  |  |  |  | NC(N)=Nc1nc(-c2cc(I)cc(I)c2)c[se]1 [Compound I-34] | 1.25 | 0.75 | 1.25 | 1.25 | 256 | 256 | 256 | 256 |
| 256 (≈ 675 µM) | 256 (≈ 675 µM) | 256 (≈ 675 µM) | 256 (≈ 675 µM) | NC(N)=Nc1nc(-c2ccccc2Oc2ccc(Cl)cc2Cl)cs1 [Compound I-85] | 0.19 | 0.04 | 0.26 | 0.52 |  |  |  |  |
|  |  |  |  | COc1ccc(Oc2cccc(-c3csc(N=C4NCCCN4)n3)c2)c(C)c1 [Compound I-154] | 0.19 | 0.38 | 0.04 | 0.04 | 256 | 256 | 256 | 256 |
|  |  |  |  | Clc1cc(Oc2ccc(Cl)cc2Cl)cc(-c2csc(N=C3NCCCN3)n2)c1 [Compound I-160] | 0.16 | 0.03 | 0.18 | 0.28 | 256 | 256 | 256 | 256 |
|  |  |  |  | Cc1[nH]c(N=C2NCCCN2)nc1-c1cc(C(C)(C)C)cc(C(C)(C)C)c1 [Compound I-162] | 0.16 | 0.03 | 0.18 | 0.28 | 256 | 256 | 256 | 256 |
|  |  |  |  | NC(N)=Nc1nc(-c2cccc(Oc3ccc(I)cc3I)c2)cs1 [Compound I-97] | 0.13 | 0.04 | 0.2 | 0.28 | 256 | 256 | 256 | 256 |
|  |  |  |  | CC(C)(C)c1cccc(-c2c[se]c(N=C(N)N)n2)c1 [Compound I-11] | 0.25 | 0.3 | 0.5 | 0.63 | 256 | 256 | 256 | 256 |
|  |  |  |  | Fc1cc(-c2csc(N=C3NCCCN3)n2)c(F)cc1Oc1ccccc1 [Compound I-136] | 1.25 | 1.25 | 0.5 | 1.25 | 256 | 256 | 256 | 256 |
|  |  |  |  | Oc1c(Br)cc(-c2coc(N=C3NCCCN3)n2)cc1Br [Compound I-178] | 1.25 | 0.51 | 1.25 | 1.25 | 256 | 256 | 256 | 256 |
|  |  |  |  | CSc1cc2c(Cl)cccn2c1-c1c[nH]c(N=C(N)N)n1 [Compound I-129] | 0.09 | 0.31 | 0.14 | 0.06 | 256 | 256 | 256 | 256 |
| 256 (≈ 758 µM) | 256 (≈ 758 µM) | 256 (≈ 758 µM) | 256 (≈ 758 µM) | NC(N)=Nc1nc(-c2c(S(N)(=O)=O)csc2Cl)cs1 [Compound I-118] | 0.19 | 1.25 | 1.25 | 1.25 |  |  |  |  |
|  |  |  |  | NC(N)=Nc1nc(-c2c(F)cccc2-c2nccs2)cs1 [Compound I-80] | 0.52 | 0.52 | 0.63 | 1.25 | 256 | 256 | 256 | 256 |
|  |  |  |  | O=C(Nc1ccccc1)Nc1cccc(-c2nc(N=C3NCCCN3)sc2Br)c1 [Compound I-198] | 1.25 | 0.75 | 0.5 | 1.25 | 128 | 256 | 128 | 64 |
|  |  |  |  | CCc1sc(N=C(N)N)nc1-c1ccccc1-c1ccncn1 [Compound I-77] | 0.52 | 0.52 | 0.63 | 1.25 | 256 | 256 | 256 | 256 |
